Measurements reported in patent US12553055B2, “Auxin-inducible degron system kit and use thereof” (Inter-University Research Institute Corporation Research …, priority 2019, dated 2026).

Assays:
[1] = test system: yeast strains with mAID tag on MCM10, SLD3 or CDC45; assay: Growth of mAID-tagged yeast strains expressing OsTIR1(WT, F74G or F74A) on plates; format: cell-based
From the text: In order to confirm that the AID2 system functions even in yeasts, OsTIR1(WT, F74G or F74A) was introduced into a URA3 gene locus under the control of a GAL1-10 promoter (refer to FIG. 12(A)). After that, an mAID tag was attached to a gene that encodes MCM10, SLD3 or CDC45, which is an essential replication initiator.

[2] = target: T1, mAID-EGFP-POLD1 (Oryza sativa subsp. japonica, UniProt Q7XVM8, F74G); assay: Western blotting of mAID-EGFP-POLD1 degradation in HeLa cell (transposon vector + CRISPR-KO); format: cell-based, human; details: anti-POLD1 antibody, clones #1 to #3
T1 construct: P2A linker (self-cleaving; remnant); expressed in transfected cells; host or cells: HeLa; transposon vector plus CRISPR-KO vector
From the text: (§1) In this degradation system, (1) a transposon vector in which an OsTIR1(F74G) gene and an mAID-target gene are connected by a P2A linker gene and (2) a CRISPR-KO vector for knocking out an endogenous target gene containing gRNA and a Cas9 gene are contained.
(§2) In this degradation system, the OsTIR1(F74G) gene and the mAID-target gene in a genome are integrated by the transposon vector, and an endogenous target gene is knocked out by the CRISPR-KO vector.
(§3) The transposon vector in which an OsTIR1(F74G) gene and an mAID-EGFP-CENPH or mAID-EGFP-POLD1 target gene were connected by a P2A linker gene was constructed, and this vector was introduced into a HeLa cell together with the CRISPR-KO vector targeting an endogenous CENPH or POLD1 gene. 5-Ph-IAA was added to such a cell, and the degradation of the target protein was confirmed by Western blotting (FIG. 6).

[3] = target: T2, RAD21-mAID-Clover (RAD21-mAC) cell expressing OsTIR1(F74G) (Oryza sativa subsp. japonica, UniProt Q7XVM8, F74G); assay: RAD21-mAC degradation in HCT116 cell expressing OsTIR1(F74G); format: cell-based, human
T2 construct: expressed in transfected cells; host or cells: human HCT116 constantly expressing OsTIR1(F74G); RAD21 tagged by genome editing
Method: (§4) A human HCT116 cell constantly expressing OsTIR1(F74G) was used as a material, an RAD21-mAID-Clover (RAD21-mAC) cell was generated by genome editing, and an effect of the addition of 5-Ph-IAA was confirmed. As shown in FIGS. 13(A) and (B), the expression level of RAD21-mAC was […] in a cell expressing OsTIR1(F74G) than in a cell expressing OsTIR1(WT) at 0 minutes before addition, and basal degradation was shown in conventional AID systems.

[4] = target: T3, OsTIR1(F74A)/mAID-EGFP-NLS expressing cell (Oryza sativa subsp. japonica, UniProt Q7XVM8, F74A); assay: FACS analysis of mAID-EGFP-NLS reporter degradation in OsTIR1(F74A) expressing cell clones; format: cell-based, human
T3 construct: expressed in transfected cells
Method: Furthermore, the same experiment was also performed on three clones using an OsTIR1(F74A)/mAID-EGFP-NLS expressing cell.

[5] = test system: HCT116 cell; assay: Influence of 5-Ph-IAA treatment on HCT116 cell (cell cycle, colony formation); format: cell-based, human; details: 1 μM
Method: As shown in FIG. 9(A) in which the influence of the treatment with 1 μM of 5-Ph-IAA on the HCT116 cell was investigated, no influence was shown on the cell cycle. As shown in FIG. 9(B), no change in the colony formation efficiency was shown. It was confirmed that 5-Ph-IAA is an effective ligand and has no toxicity at 1 μM.

[6] = target: T4, mAID-EGFP-CENPH (Oryza sativa subsp. japonica, UniProt Q7XVM8, F74G); assay: Western blotting of mAID-EGFP-CENPH degradation in HeLa cell (transposon vector + CRISPR-KO); format: cell-based, human; details: anti-CENPH antibody
T4 construct: P2A linker (self-cleaving; remnant); expressed in transfected cells; host or cells: HeLa; transposon vector plus CRISPR-KO vector
From the text: as §1, §2, §3

[7] = target: T5, OsTIR1(F74G)/DHC1-mAID-Clover expressing cell (Oryza sativa subsp. japonica, UniProt Q7XVM8, F74G); assay: Degradation induction test of DHC1 (microscopy, Western blotting); format: cell-based, human
T5 construct: expressed in transfected cells; host or cells: HCT116; OsTIR1(F74G) gene at the AAVS1 locus; endogenous DHC1 tagged by CRISPR/Cas9 homologous recombination
Method: A plasmid vector having mAID, clover and a neomycin resistance gene and having a homologous sequence with respect to a DHC1 gene so as to sandwich mAID and the neomycin resistance gene was introduced into the OsTIR1(WT)-expressing HCT116 cell or OsTIR1(F74G)-expressing HCT116 cell using a CRISPR/Cas9 system, and homologous recombination with the endogenous DHC1 gene was performed. Next, after selection by G418, the formed colony was dyed using crystal violet. “DHC1” is the abbreviation for dynein heavy chain 1.
A degradation induction test of DHC1 was performed using the HCT116 cell expressing OsTIR1(F74G) on which homologous recombination had been performed in the above-described section 2 (hereinafter, referred to as “OsTIR1(F74G)/DHC1-mAID-Clover expressing cell”).
The compound indicated by the formula (I-2) (also referred to as 5-Ph-IAA) was added to the OsTIR1(F74G)/DHC1-mAID-Clover expressing cell, and the appearance of the cell after 24 hours was observed (FIG. 4(A)).
Furthermore, the degradation of DHC1 was confirmed by Western blotting (FIG. 4(B)).
A CRISPR plasmid for adding a degron tag and two donors each having a neomycin-resistant marker or a hygromycin-resistant marker were transfected into a parent cell line constitutively expressing OsTIR1(WT or F74G) (refer to FIG. 14). In an OsTIR1(F74G) expressing cell, a colony was formed in the presence of G418 and hygromycin, and tags were added to DHC1 genes at both alleles (refer to FIG. 15(A)). In a cell expressing OsTIR1(WT), no colony was formed. […] This coincides with the fact that DHC1 is essential for the formation of a spindle that is formed during mitosis.

[8] = target: T6, SMC2, CTCF and POLR2A to which mAID is added (Oryza sativa subsp. japonica, UniProt Q7XVM8, F74G); assay: Degradation of mAID fused SMC2, CTCF and POLR2A in HCT116 constitutively expressing OsTIR1(F74G); format: cell-based, human; details: 1 μM
T6 construct: expressed in transfected cells; host or cells: HCT116 constitutively expressing OsTIR1(F74G); endogenous genes tagged
From the text: Regarding aSMC2 condensin complex, a CTCF insulator protein or the maximum subunit of RNA polymerase 2 (POLR2A) in which it was difficult to produce an AID cell line using an HCT116 cell constantly expressing OsTIR1(WT), whether or not a cell line can be generated with a cell constitutively expressing OsTIR1(F74G) was examined.

[9] = target: T7, OsTIR1(F74G)/mAID-EGFP-NLS expressing cell (Oryza sativa subsp. japonica, UniProt Q7XVM8, F74G); assay: FACS analysis of mAID-EGFP-NLS reporter degradation in OsTIR1(F74G) expressing HCT116 cell; format: cell-based, human
T7 construct: expressed in transfected cells; host or cells: HCT116 (human colon adenocarcinoma-derived cell)
Method: (§5) An HCT116 cell (human colon adenocarcinoma-derived cell) having DNA in which an OsTIR1(WT) or OsTIR1(F74G) and an mAID-EGFP (green fluorescent protein)-NLS (nuclear localization signal) were encoded through a P2A sequence inserted onto a chromosome by a transposon (hereinafter, referred to as “OsTIR1(WT)/mAID-EGFP-NLS expressing cell” or “OsTIR1(F74G)/mAID-EGFP-NLS expressing cell”) was prepared (refer to FIG. 1).
(§6) The auxin analog (concentration in culture medium: 0, 200 μM) was added to the OsTIR1(F74G)/mAID-EGFP-NLS expressing cell and cultured for 24 hours. In addition, as a control, a cell containing an auxin added to the OsTIR1(WT)/mAID-EGFP-NLS expressing cell was also prepared.
(§7) After 24 hours from the addition of the auxin analog, the cells were collected, and FACS analysis was performed.
(§8) Furthermore, the same experiment was performed by adding 100 μM of an auxin to the OsTIR1(WT)/mAID-EGFP-NLS expressing cell, adding 1 μM of 5-Ph-IAA to the OsTIR1(F74G)/mAID-EGFP-NLS expressing cell, collecting the cells after four hours, and performing FACS analysis.
(§9) In order to compare OsTIR1(WT) and OsTIR1(F74G) in more detail, the degradation of the mAID-EGFP-NLS reporter was induced using IAA (auxin) and 5-Ph-IAA in different doses, respectively (refer to FIG. 10(A)). […] DC 50 values (concentrations for 50% degradation) were 300±30 nM and 0.45±0.01 nM in OsTIR1(WT) and OsTIR1(F74G), respectively, and it was confirmed that the system in which 5-Ph-IAA was used functioned at an approximately 670-times lower concentration compared with conventional auxin-inducible degron systems.
In order to investigate dynamics over time attributed to the removal of a target protein, samples after a lapse of time were taken, and the expression levels of the reporter were observed (refer to FIG. 10(B)). […]

[10] = target: T8, OsTIR1(WT)/mAID-EGFP-NLS expressing cell (Oryza sativa subsp. japonica, UniProt Q7XVM8); assay: FACS analysis of mAID-EGFP-NLS reporter degradation in OsTIR1(WT) expressing HCT116 cell (conventional system); format: cell-based, human
T8 construct: expressed in transfected cells; host or cells: HCT116 (human colon adenocarcinoma-derived cell)
Method: as §5, §6, §7, §8, §9
In order to investigate dynamics over time attributed to the removal of a target protein, samples after a lapse of time were taken, and the expression levels of the reporter were observed (refer to FIG. 10(B)).

[11] = target: T9, RAD21-mAID-Clover (RAD21-mAC) cell expressing OsTIR1(WT) (Oryza sativa subsp. japonica, UniProt Q7XVM8); assay: RAD21-mAC degradation in HCT116 cell expressing OsTIR1(WT); format: cell-based, human; details: after the addition of a ligand
T9 construct: expressed in transfected cells; host or cells: RAD21-mAC cell expressing OsTIR1(WT) (HCT116 implied)
T9 sequence (Q7XVM8 1-575): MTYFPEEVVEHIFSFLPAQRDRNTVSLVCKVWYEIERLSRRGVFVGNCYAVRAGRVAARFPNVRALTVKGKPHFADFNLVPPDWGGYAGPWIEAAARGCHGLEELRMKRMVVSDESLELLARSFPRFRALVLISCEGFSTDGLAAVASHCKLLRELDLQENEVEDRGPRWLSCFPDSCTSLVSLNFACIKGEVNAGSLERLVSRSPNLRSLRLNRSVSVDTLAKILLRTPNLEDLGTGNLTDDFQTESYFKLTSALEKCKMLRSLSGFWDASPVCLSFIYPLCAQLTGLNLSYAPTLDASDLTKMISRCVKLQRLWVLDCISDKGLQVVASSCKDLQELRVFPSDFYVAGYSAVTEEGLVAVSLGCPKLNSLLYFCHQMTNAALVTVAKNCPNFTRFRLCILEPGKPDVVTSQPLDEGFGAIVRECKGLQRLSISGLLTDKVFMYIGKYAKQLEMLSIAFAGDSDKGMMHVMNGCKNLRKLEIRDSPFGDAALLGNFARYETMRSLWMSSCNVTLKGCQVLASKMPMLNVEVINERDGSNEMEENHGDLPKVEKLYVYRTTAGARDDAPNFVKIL
Method: as §4

O=C(O)Cc1c[nH]c2ccc(-c3ccccc3)cc12 [5-Ph-IAA, 5-phenyl-indole 3-acetic acid]
growth of mAID-introduced yeast strains ([1]; plates containing 5 μM, OsTIR1(F74G or F74A)): strong growth inhibition | degradation of mAID-EGFP-POLD1 by Western blotting [2]: degradation of mAID-EGFP-POLD1 was confirmed | cell cycle of RAD21-mAC degraded cells [3]: arrested in the G2/M phase | sister chromatid cohesion of RAD21-mAC degraded cell [3]: profound defect | T1/2 of RAD21-mAC ([3]; after the addition of a ligand): 11.7 min | degradation of mAID-EGFP-NLS reporter in clones [4]: degradation was induced | colony formation efficiency [5]: no change | influence on the cell cycle [5]: no influence | toxicity [5]: no toxicity | degradation of mAID-EGFP-CENPH by Western blotting [6]: degradation of mAID-EGFP-CENPH was confirmed | cell cycle phenotype after DHC1-mAC degradation ([7]; 1 μM): arrested in mitosis | mitotic spindle formation after DHC1-mAC degradation ([7]; 1 μM): strong defect in mitotic spindle formation | degradation of DHC1-mAC ([7]; 1 μM, clone with tags at both alleles): more efficiently degraded | cell phenotype after DHC1 degradation ([7]; after 24 hours): accumulation of cells in the mitotic period was observed | degradation of DHC1-mAID-Clover fused protein (microscopy) ([7]; after 24 hours): degraded a DHC1-mAID-Clover fused protein | degradation of DHC1 by Western blotting ([7]; clones #1 to #3): degradation of DHC1 and mAID was confirmed | degradation of mAID fused targets (SMC2, CTCF, POLR2A) [8]: rapidly degraded | effect of inducing the degradation of the mAID-EGFP-NLS reporter ([9]; 1 nM and 10 nM, compared with the other auxin analogs): stronger effect | degradation of mAID-EGFP-NLS reporter ([9]; 1 μM, four hours): efficiently degraded | half-life of reporter degradation ([9]; AID2 system, OsTIR1(F74G)): 62.3 ± 2.0 min | times lower concentration compared with conventional auxin-inducible degron systems ([9]; DC50 OsTIR1(WT)/IAA versus OsTIR1(F74G)/5-Ph-IAA): approximately 670 times | degradation of mAID-EGFP-NLS reporter in clones ([9]; OsTIR1(F74G) clones compared with OsTIR1(F74A) clone): sharper degradation | recovery of reporter expression after exchange to culture medium containing no 5-Ph-IAA ([9]; OsTIR1(F74G), after degradation induction): fully recovered after three hours | DC50 ([9]; read-out: DC 50 values (concentrations for 50% degradation), mAID-EGFP-NLS reporter, OsTIR1(F74G), HCT116): 0.45 ± 0.01 nM

O=C(O)Cc1c[nH]c2ccccc12 [IAA]
growth of mAID-introduced yeast strains ([1]; 500 μM, OsTIR1(WT and F74A)): growth suppression | degradation of mAID-EGFP-NLS reporter ([10]; 100 μM, four hours): the reporter was degraded | half-life of reporter degradation ([10]; conventional system, OsTIR1(WT)): 147.1 ± 12.5 min | DC50 ([10]; mAID-EGFP-NLS reporter, OsTIR1(WT), HCT116, read-out: DC 50 values (concentrations for 50% degradation)): 300 ± 30 nM | T1/2 of RAD21-mAC [11]: 26.5 min
